Results: ChEMBL document CHEMBL1201862, “PubChem BioAssay data set” (2004)
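48-hour exposure; five concentrations; linearly interpolated endpoints. GI50 = concentration required for 50% inhibition of growth.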 Calls of active or inactive are those of the source. No stated cut-off is given here; in the data, active = GI50 up to about 1.1 µM and inactive = higher.

Tests used:
Test in all cases: NCI anticancer screen, dose series, 48 h
[1] = tested on: HCC 2998
[2] = tested on: OVCAR-3
[3] = tested on: XF498
[4] = tested on: MOLT-4
[5] = tested on: SK-MEL-28
[6] = tested on: CCRF-CEM
[7] = tested on: OVCAR-5
[8] = tested on: HCT-116
[9] = tested on: SW-620
[10] = tested on: UO-31
[11] = tested on: HOP-18
[12] = tested on: IGROV-1
[13] = tested on: 786-0
[14] = tested on: M19-MEL
[15] = tested on: SK-MEL-5
[16] = tested on: NCI-H226
[17] = tested on: ACHN
[18] = tested on: SR
[19] = tested on: Malme-3M
[20] = tested on: OVCAR-8
[21] = tested on: KM12
[22] = tested on: SN12C
[23] = tested on: A549
[24] = tested on: NCI-H460
[25] = tested on: HOP-62
[26] = tested on: UACC-62
[27] = tested on: NCI-H23
[28] = tested on: LXFL 529
[29] = tested on: HT-29
[30] = tested on: CAKI-1
[31] = tested on: UACC-257
[32] = tested on: COLO 205
[33] = tested on: SF-295
[34] = tested on: DMS-114
[35] = tested on: DMS-273
[36] = tested on: SNB-75
[37] = tested on: SF-539
[38] = tested on: RPMI-8226
[39] = tested on: HOP-92
[40] = tested on: SK-OV-3
[41] = tested on: NCI-H522
[42] = tested on: U-251
[43] = tested on: HCT-15
[44] = tested on: SK-MEL-2
[45] = tested on: M14
[46] = tested on: HL-60
[47] = tested on: SNB-78
[48] = tested on: EKVX
[49] = tested on: OVCAR-4
[50] = tested on: A498
[51] = tested on: K562
[52] = tested on: DLD-1
[53] = tested on: SF-268
[54] = tested on: KM-20L2
[55] = tested on: SNB-19
[56] = tested on: TK-10
[57] = tested on: Hs-578T
[58] = tested on: MDA-MB-435
[59] = tested on: T47D
[60] = tested on: BT-549
[61] = tested on: DU-145
[62] = tested on: MDA-N
[63] = tested on: PC-3
[64] = tested on: MDA-MB-231

Compound: Cc1ccccc1C(C#N)/C(=N/NC(=O)c1cc2ccccc2cc1O)C(=O)Nc1cccc(Cl)c1 (stereo not drawn)
- GI50 [1]: 28.8 µM (inactive)
- GI50 [2]: 5.42 µM (inactive)
- GI50 [3]: 14.8 µM (inactive)
- GI50 [4]: 10.9 µM (inactive)
- GI50 [5]: 25.1 µM (inactive)
- GI50 [6]: 4.36 µM (inactive)
- GI50 [7]: 13.4 µM (inactive)
- GI50 [8]: 14.5 µM (inactive)
- GI50 [9]: 7.85 µM (inactive)
- GI50 [10]: 3.13 µM (inactive)
- GI50 [11]: 5.37 µM (inactive)
- GI50 [12]: 9.93 µM (inactive)
- GI50 [13]: 7.85 µM (inactive)
- GI50 [14]: 17.3 µM (inactive)
- GI50 [15]: 8.38 µM (inactive)
- GI50 [16]: 18.5 µM (inactive)
- GI50 [17]: 16.4 µM (inactive)
- GI50 [18]: 12.6 µM (inactive)
- GI50 [19]: 30.8 µM (inactive)
- GI50 [20]: 8.85 µM (inactive)
- GI50 [21]: 33.4 µM (inactive)
- GI50 [22]: 35.6 µM (inactive)
- GI50 [23]: 18 µM (inactive)
- GI50 [24]: 28.7 µM (inactive)
- GI50 [25]: 27.5 µM (inactive)
- GI50 [26]: 4.27 µM (inactive)
- GI50 [27]: 12.4 µM (inactive)
- GI50 [28]: 20.5 µM (inactive)
- GI50 [29]: 42.1 µM (inactive)
- GI50 [30]: 19.8 µM (inactive)
- GI50 [31]: 20.7 µM (inactive)
- GI50 [32]: 24.4 µM (inactive)
- GI50 [33]: 21.1 µM (inactive)
- GI50 [34]: 17.2 µM (inactive)
- GI50 [35]: 6.75 µM (inactive)
- GI50 [36]: 6.24 µM (inactive)
- GI50 [37]: 26.4 µM (inactive)
- GI50 [38]: 21.3 µM (inactive)
- GI50 [39]: 26.4 µM (inactive)
- GI50 [40]: 41.8 µM (inactive)
- GI50 [41]: 20.9 µM (inactive)
- GI50 [42]: 25.6 µM (inactive)
- GI50 [43]: 22.4 µM
- GI50 [44]: 22.5 µM (inactive)
- GI50 [45]: 18.6 µM (inactive)
- GI50 [46]: 3.72 µM (inactive)
- GI50 [47]: 21.8 µM (inactive)
- GI50 [48]: 28.8 µM (inactive)
- GI50 [49]: 21.6 µM (inactive)
- GI50 [50]: 41.4 µM (inactive)
- GI50 [51]: 9.64 µM (inactive)
- GI50 [52]: 18.4 µM (inactive)
- GI50 [53]: 7.69 µM (inactive)
- GI50 [54]: 31.1 µM (inactive)
- GI50 [55]: 37.9 µM (inactive)
- GI50 [56]: 45.7 µM (inactive)

Compound: CO[C@H](C(=O)[C@@H](O)[C@@H](C)O)[C@@H]1Cc2cc3cc(OC4CC(OC5CC(O)C(O)C(C)O5)C(O)C(C)O4)c(C)c(O)c3c(O)c2C(=O)[C@H]1OC1CC(OC2CC(OC3CC(C)(O)C(O)C(C)O3)C(O)C(C)O2)C(O)C(C)O1 (stereo partly drawn)
- GI50 [3]: 0.314 µM (active)
- GI50 [57]: 0.00331 µM (active)
- GI50 [58]: 0.0197 µM (active)
- GI50 [59]: 0.00406 µM (active)
- GI50 [8]: 0.125 µM (active)
- GI50 [11]: 0.125 µM (active)
- GI50 [13]: 0.00927 µM (active)
- GI50 [14]: 0.314 µM (active)
- GI50 [16]: 0.125 µM (active)
- GI50 [18]: 0.00526 µM (active)
- GI50 [20]: 0.176 µM (active)
- GI50 [60]: 0.00689 µM (active)
- GI50 [61]: 0.0438 µM (active)
- GI50 [30]: 0.125 µM (active)
- GI50 [62]: 0.0128 µM (active)
- GI50 [34]: 0.348 µM (active)
- GI50 [35]: 0.348 µM (active)
- GI50 [37]: 0.125 µM (active)
- GI50 [63]: 0.0284 µM (active)
- GI50 [45]: 0.0196 µM (active)
- GI50 [46]: 0.128 µM (active)
- GI50 [47]: 0.395 µM (active)
- GI50 [52]: 0.334 µM (active)
- GI50 [54]: 0.348 µM (active)
- GI50 [55]: 0.125 µM (active)
- GI50 [64]: 0.0495 µM (active)
- GI50 [56]: 0.129 µM (active)
